From PubChem BioAssay (NCI)
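Values below derive from 48-hour exposures of cells grown in 96-well plates, with endpoints linearly interpolated between the two concentrations bracketing the appropriate inhibition level. Abbreviation: GI50, concentration required for 50% inhibition of growth. The concentration for full growth arrest is given as TGI.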

Key:
Experiment in all cases: NCI anticancer screen, dose series, 48 h
MDA-MB-435 = test system: MDA-MB-435
OVCAR-8 ovarian = test system: OVCAR-8 ovarian
U251 CNS = test system: U251 CNS
CCRF-CEM leukemia = test system: CCRF-CEM leukemia
KM12 colon = test system: KM12 colon
CAKI-1 renal = test system: CAKI-1 renal
HOP-62 NSCLC = test system: HOP-62 NSCLC
SW-620 colon = test system: SW-620 colon
RXF 393 renal = test system: RXF 393 renal
SF-539 CNS = test system: SF-539 CNS
RPMI-8226 leukemia = test system: RPMI-8226 leukemia
ACHN renal = test system: ACHN renal
HT29 colon = test system: HT29 colon
786-0 renal = test system: 786-0 renal
NCI-H226 lung = test system: NCI-H226 lung
SK-OV-3 ovarian = test system: SK-OV-3 ovarian
A498 renal = test system: A498 renal
T-47D breast = test system: T-47D breast
HOP-92 NSCLC = test system: HOP-92 NSCLC
SN12C renal = test system: SN12C renal
MCF7 breast = test system: MCF7 breast
HS 578T breast = test system: HS 578T breast
IGROV1 ovarian = test system: IGROV1 ovarian
OVCAR-5 ovarian = test system: OVCAR-5 ovarian
SNB-19 CNS = test system: SNB-19 CNS
NCI-H23 lung = test system: NCI-H23 lung
M14 melanoma = test system: M14 melanoma
SK-MEL-2 melanoma = test system: SK-MEL-2 melanoma
SK-MEL-5 melanoma = test system: SK-MEL-5 melanoma
A549 NSCLC = test system: A549 NSCLC
SK-MEL-28 melanoma = test system: SK-MEL-28 melanoma
DU-145 prostate = test system: DU-145 prostate
HCC-2998 colon = test system: HCC-2998 colon
NCI-H522 lung = test system: NCI-H522 lung
SR leukemia = test system: SR leukemia
OVCAR-4 ovarian = test system: OVCAR-4 ovarian
SF-268 CNS = test system: SF-268 CNS
MALME-3M melanoma = test system: MALME-3M melanoma
TK-10 renal = test system: TK-10 renal
K-562 leukemia = test system: K-562 leukemia
HCT-116 colon = test system: HCT-116 colon
UACC-257 melanoma = test system: UACC-257 melanoma
BT-549 breast = test system: BT-549 breast
UACC-62 melanoma = test system: UACC-62 melanoma
SNB-75 CNS = test system: SNB-75 CNS
HCT-15 colon = test system: HCT-15 colon
LOX IMVI melanoma = test system: LOX IMVI melanoma
HL-60(TB) leukemia = test system: HL-60(TB) leukemia
MOLT-4 leukemia = test system: MOLT-4 leukemia
NCI/ADR-RES ovarian = test system: NCI/ADR-RES ovarian
EKVX NSCLC = test system: EKVX NSCLC
MDA-MB-231 breast = test system: MDA-MB-231 breast
SF-295 CNS = test system: SF-295 CNS
NCI-H460 lung = test system: NCI-H460 lung
UO-31 renal = test system: UO-31 renal
PC-3 prostate = test system: PC-3 prostate
COLO 205 colon = test system: COLO 205 colon

CNC(=O)c1cc(N2CCc3cc(NC(=O)Nc4ccc(N5CCN(C)CC5)c(C(F)(F)F)c4)ccc32)ccn1
GI50 (MDA-MB-435): 3.99 µM
TGI (MDA-MB-435): 7.6 µM
GI50 (OVCAR-8 ovarian): 4.48 µM
TGI (OVCAR-8 ovarian): 8.67 µM
GI50 (U251 CNS): 2.45 µM
TGI (U251 CNS): 5.75 µM
GI50 (CCRF-CEM leukemia): 1.17 µM
TGI (CCRF-CEM leukemia): 21.6 µM
GI50 (KM12 colon): 0.862 µM
TGI (KM12 colon): 4.24 µM
GI50 (CAKI-1 renal): 4.43 µM
TGI (CAKI-1 renal): 9.07 µM
GI50 (HOP-62 NSCLC): 4.02 µM
TGI (HOP-62 NSCLC): 8.34 µM
GI50 (SW-620 colon): 0.881 µM
TGI (SW-620 colon): 2.87 µM
GI50 (RXF 393 renal): 0.815 µM
TGI (RXF 393 renal): 3.15 µM
GI50 (SF-539 CNS): 1.03 µM
TGI (SF-539 CNS): 4.15 µM
GI50 (RPMI-8226 leukemia): 0.742 µM
TGI (RPMI-8226 leukemia): 2.69 µM
GI50 (ACHN renal): 3.92 µM
TGI (ACHN renal): 7.31 µM
GI50 (HT29 colon): 1.31 µM
TGI (HT29 colon): 4.91 µM
GI50 (786-0 renal): 2.86 µM
TGI (786-0 renal): 6.15 µM
GI50 (NCI-H226 lung): > 25 µM
TGI (NCI-H226 lung): > 25 µM
GI50 (SK-OV-3 ovarian): > 25 µM
TGI (SK-OV-3 ovarian): > 25 µM
GI50 (A498 renal): 7.9 µM
TGI (A498 renal): > 25 µM
GI50 (T-47D breast): 4.14 µM
TGI (T-47D breast): 9.32 µM
GI50 (HOP-92 NSCLC): 21.4 µM
TGI (HOP-92 NSCLC): > 25 µM
GI50 (SN12C renal): 4.05 µM
TGI (SN12C renal): 8.1 µM
GI50 (MCF7 breast): 2.96 µM
TGI (MCF7 breast): 7.39 µM
GI50 (HS 578T breast): 3.49 µM
TGI (HS 578T breast): 9.66 µM
GI50 (IGROV1 ovarian): 4.6 µM
TGI (IGROV1 ovarian): 9.53 µM
GI50 (OVCAR-5 ovarian): 3.76 µM
TGI (OVCAR-5 ovarian): 8.4 µM
GI50 (SNB-19 CNS): 3.6 µM
TGI (SNB-19 CNS): 8.12 µM
GI50 (NCI-H23 lung): 3.73 µM
TGI (NCI-H23 lung): 8.06 µM
GI50 (M14 melanoma): 3.34 µM
TGI (M14 melanoma): 6.67 µM
GI50 (SK-MEL-2 melanoma): 4.56 µM
TGI (SK-MEL-2 melanoma): 8.66 µM
GI50 (SK-MEL-5 melanoma): 4.32 µM
TGI (SK-MEL-5 melanoma): 7.89 µM
GI50 (A549 NSCLC): 3.94 µM
TGI (A549 NSCLC): 7.99 µM
GI50 (SK-MEL-28 melanoma): 3.7 µM
TGI (SK-MEL-28 melanoma): 7.19 µM
GI50 (DU-145 prostate): 4.22 µM
TGI (DU-145 prostate): 8.12 µM
GI50 (HCC-2998 colon): 4.13 µM
TGI (HCC-2998 colon): 7.83 µM
GI50 (NCI-H522 lung): 4.87 µM
TGI (NCI-H522 lung): 9.54 µM
GI50 (SR leukemia): 0.79 µM
TGI (SR leukemia): 4.43 µM
GI50 (OVCAR-4 ovarian): 3.96 µM
TGI (OVCAR-4 ovarian): 8.69 µM
GI50 (SF-268 CNS): 4.08 µM
TGI (SF-268 CNS): 9.86 µM
GI50 (MALME-3M melanoma): 3.72 µM
TGI (MALME-3M melanoma): 7.52 µM
GI50 (TK-10 renal): 5.42 µM
TGI (TK-10 renal): 11.1 µM
GI50 (K-562 leukemia): 0.69 µM
TGI (K-562 leukemia): 2.19 µM
GI50 (HCT-116 colon): 2.22 µM
TGI (HCT-116 colon): 5.35 µM
GI50 (UACC-257 melanoma): 4.31 µM
TGI (UACC-257 melanoma): 8.05 µM
GI50 (BT-549 breast): 4.59 µM
TGI (BT-549 breast): 14.4 µM
GI50 (UACC-62 melanoma): 4.48 µM
TGI (UACC-62 melanoma): 9.4 µM
GI50 (SNB-75 CNS): 2.55 µM
TGI (SNB-75 CNS): 5.75 µM
GI50 (HCT-15 colon): 0.879 µM
TGI (HCT-15 colon): 3.59 µM
GI50 (LOX IMVI melanoma): 3.44 µM
TGI (LOX IMVI melanoma): 7.14 µM
GI50 (HL-60(TB) leukemia): 4.28 µM
TGI (HL-60(TB) leukemia): 11.9 µM
GI50 (MOLT-4 leukemia): 1.18 µM
TGI (MOLT-4 leukemia): 22 µM
GI50 (NCI/ADR-RES ovarian): 5.27 µM
TGI (NCI/ADR-RES ovarian): 12 µM
GI50 (EKVX NSCLC): 3.95 µM
TGI (EKVX NSCLC): 7.73 µM
GI50 (MDA-MB-231 breast): 3.48 µM
TGI (MDA-MB-231 breast): 7.83 µM
GI50 (SF-295 CNS): 0.541 µM
TGI (SF-295 CNS): 1.33 µM
GI50 (NCI-H460 lung): 3.78 µM
TGI (NCI-H460 lung): 7.68 µM
GI50 (UO-31 renal): 4.22 µM
TGI (UO-31 renal): 9.43 µM
GI50 (PC-3 prostate): 4.36 µM
TGI (PC-3 prostate): 15.3 µM
GI50 (COLO 205 colon): 4.54 µM
TGI (COLO 205 colon): 8.71 µM
